Data: EP2242752B1, “[…] IMIDAZOLES AS HEPATITIS C VIRUS INHIBITORS” (Bristol-Myers Squibb Company, priority 2008, dated 2009)

System: HCV 1b genotype
Experiment: HCV Replicon assay (HCV 16-377-neo replicon cells)
Type: cell-based
Settings: Hepatitis C virus; HCV 1b genotype replicon cells; read-out: EC50 ranges against HCV 1b
Description: An HCV Replion assay was utilized in the present disclosure, and was prepared, conducted and validated as described in commonly owned PCT/US2006/022197 and in O'Boyle et. al. Antimicrob Agents Chemother. 2005 Apr;49(4): 1346-53.
HCV 16-377-neo replicon cells were used to test the currently described compound series as well as cells resistant to compound A due to a Y2065H mutation in NS5A (described in application PCT/US2006/022197). The compounds tested were determined to have more than 10-fold less inhibitory activity on cells resistant to compound A than wild-type cells indicating a related mechanism of action between the two compound series. Thus, the compounds of the present disclosure can be effective to inhibit the function of the HCV NS5A protein and are understood to be as effective in combinations as previously described in application PCT/US2006/022197 and commonly owned WO/O4014852. Further, the compounds of the present disclosure can be effective against the HCV 1b genotype. It should also be understood that the compounds of the present disclosure can inhibit multiple genotypes of HCV. […] In one embodiment compounds of the present disclosure are active against the 1a, 1b, 2a, 2b, 3a, 4a, and 5a genotypes.

Row | SMILES | EC50 [nM]
1 | CCN(CC)[C@@H](C(=O)N1CC(F)(F)C[C@H]1c1nc(-c2ccc(-c3ccc(-c4c[nH]c([C@@H]5CCCN5C(=O)[C@@H](c5ccccc5)N(CC)CC)n4)c(F)c3)cc2)c[nH]1)c1ccccc1 [Example J14e.1, (1R)-2-((2S)-2-(4-(4'-(2-((2S)-1-((2R)-2-(diethylamino)-2-phenylacetyl)-4,4-difluoro-2-pyrrolidinyl)-1H-imidazol-4-yl)-3-fluoro-4-biphenylyl)-1H-imidazol-2-yl)-1-pyrrolidinyl)-N,N-diethyl-2-oxo-1-phenylethanamine] | 0.001 to 0.999
2 | C[C@H]1CC[C@@H](c2nc(-c3ccc(-c4ccc(-c5c[nH]c([C@@H]6CC[C@H](C)N6C(=O)Cc6ccccc6)n5)cc4)cc3)c[nH]2)N1C(=O)Cc1ccccc1 [Example M159, 4,4'-(4,4'-biphenyldiyl)bis(2-((2S,5S)-5-methyl-1-(phenylacetyl)-2-pyrrolidinyl)-1H-imidazole)] | 0.001 to 0.999
3 | COC(=O)N[C@H](C(=O)N1CCC[C@H]1c1nc(-c2ccc(-c3ccc(-c4[nH]c([C@@H]5CCCN5C(=O)[C@@H](NC(=O)OC)C(C)C)nc4C)cc3)cc2)c(C)[nH]1)C(C)C [Example E5l, methyl ((1S)-1-(((2S)-2-(4-(4'-(2-((2S)-1-((2S)-2-((methoxycarbonyl)amino)-3-methylbutanoyl)-2-pyrrolidinyl)-4-methyl-1H-imidazol-5-yl)-4-biphenylyl)-5-methyl-1H-imidazol-2-yl)-1-pyrrolidinyl)carbonyl)-2-methylpropyl)carba mate] | 0.001 to 0.999
4 | Cc1nc([C@@H]2CCCN2C(=O)[C@@H](c2ccccc2)N2CCCCC2)[nH]c1-c1ccc(-c2ccc(-c3c[nH]c([C@@H]4CCCN4C(=O)[C@@H](c4ccccc4)N4CCCCC4)n3)cc2)cc1 [Example E5b, 1-((1R)-2-((2S)-2-(4-(4'-(4-methyl-2-((2S)-1-((2R)-2-phenyl-2-(1-piperidinyl)acetyl)-2-pyrrolidinyl)-1H-imidazol-5-yl)-4-biphenylyl)-1H-imidazol-2-yl)-1-pyrrolidinyl)-2-oxo-1-phenylethyl)piperidine] | 0.001 to 0.999
5 | COC(=O)N[C@@H](C(=O)N1[C@@H]2C[C@H]2C[C@H]1c1nc(-c2ccc(-c3ccc(-c4c[nH]c([C@@H]5C[C@@H]6C[C@H]6N5C(=O)[C@H](NC(=O)OC)c5ccccc5)n4)cc3)cc2)c[nH]1)c1ccccc1 (mixture of isomers) [Example M137, dimethyl (4,4'-biphenyldiylbis(1H-imidazole-4,2-diyl(1R,3S,SR)-2-azabicyclo[3.1.0]hexane-3,2-diyl((1R)-2-oxo-1-phenyl-2,1-ethanediyl)))biscarbamate] | 0.001 to 0.999
6 | COC(=O)N[C@@H](C)C(=O)N1CC2(CC2)C[C@H]1c1nc(-c2ccc(-c3ccc(-c4c[nH]c([C@@H]5CC6(CC6)CN5C(=O)[C@H](C)NC(=O)OC)n4)cc3)cc2)c[nH]1 [Example M147, methyl ((1S)-2-((6S)-6-(4-(4'-(2-((6S)-5-(N-(methoxycarbonyl)-L-alanyl)-5-azaspiro[2.4]hept-6-yl)-1H-imidazol-4-yl)-4-biphenylyl)-1H-imidazol-2-yl)-5-azaspiro[2.4]hept-5-yl)-1-methyl-2-oxoethyl)carbam ate] | 0.001 to 0.999
7 | CC(C)[C@H](N)C(=O)N1[C@@H]2C[C@@H]2C[C@H]1c1ncc(-c2ccc(-c3ccc(-c4cnc([C@@H]5C[C@H]6C[C@H]6N5C(=O)[C@@H](N)C(C)C)[nH]4)cc3)cc2)[nH]1 [Example M140a-ii] | 1 to 99
8 | COC(=O)N[C@@H](C(=O)N1CCC[C@H]1c1nc(C)c(-c2ccc(-c3ccc(-c4[nH]c([C@@H]5CCCN5C(=O)[C@H](NC(=O)OC)c5ccccc5)nc4C)cc3)cc2)[nH]1)c1ccccc1 [Example E5j, dimethyl (4,4'-biphenyldiylbis((4-methyl-1H-imidazole-5,2-diyl)(2S)-2,1-pyrrolidinediyl((1R )-2-oxo-1-phenyl-2,1-ethanediyl)))biscarb amate] | 0.001 to 0.999
9 | COC(=O)N[C@@H](C)C(=O)N1CCC[C@H]1c1nc(-c2ccc(-c3ccc(-c4[nH]c([C@@H]5CCCN5C(=O)[C@H](C)NC(=O)OC)nc4C)cc3)cc2)c[nH]1 [Example E5d, methyl ((1S)-2-((2S)-2-(4-(4'-(2-((2S)-1-(N-(methoxycarbonyl)-L-alanyl)-2-pyrrolidinyl)-4-methyl-1H-imidazol-5-yl)-4-biphenylyl)-1H-imidazol-2-yl)-1-pyrrolidinyl)-1-methyl-2-oxoethyl)carbamate] | 0.001 to 0.999
10 | COC(=O)N[C@H](C(=O)N1CCC[C@H]1c1nc(-c2ccc(-c3ccc(-c4[nH]c([C@@H]5CCCN5C(=O)[C@@H](NC(=O)OC)[C@@H](C)OC)nc4CC(OC)OC)cc3)cc2)c[nH]1)[C@@H](C)OC [Example J14a, methyl ((1S,2R)-1-(((2S)-2-(4-(2,2-dimethoxyethyl)-5-(4'-(2-((2S)-1-(N-(methoxycarbonyl)-O-methyl-L-threonyl)-2-pyrrolidinyl)-1H-imidazol-4-yl)-4-biphenylyl)-1H-imidazol-2-yl)-1-pyrrolidinyl)carbonyl)-2-methoxypropyl)car bamate] | 0.001 to 0.999
11 | COC(=O)NCC(=O)N1[C@@H]2C[C@@H]2C[C@H]1c1ncc(-c2ccc(-c3ccc(-c4cnc([C@@H]5C[C@H]6C[C@H]6N5C(=O)CNC(=O)OC)[nH]4)cc3)cc2)[nH]1 (mixture of isomers) [Example M134, methyl (2-((1R,3S,SR)-3-(4-(4'-(2-((1R,3S,SR)-2-(((methoxycarbonyl)amino)acetyl)-2-azabicyclo[3.1.0]hex-3-yl)-1H-imidazol-4-yl)-4-biphenylyl)-1H-imidazol-2-yl)-2-azabicyclo[3.1.0]hex-2-yl)-2-oxoethyl) carbamate] | 1 to 99
12 | COC(=O)Cc1[nH]c([C@@H]2CCCN2C(=O)[C@@H](NC(=O)OC)C(C)C)nc1-c1ccc(-c2ccc(-c3c[nH]c([C@@H]4CCCN4C(=O)[C@@H](NC(=O)OC)C(C)C)n3)cc2)cc1 [Example J14b.1, methyl (2-((2S)-1-(N-(methoxycarbonyl)-L-valyl)-2-pyrrolidinyl)-4-(4'-(2-((2S)-1-(N-(methoxycarbonyl)-L-valyl)-2-pyrrolidinyl)-1H-imidazol-4-yl)-4-biphenylyl)-1H-imidazol-5-yl)acetate] | 0.001 to 0.999
13 | COC(=O)N[C@@H](C(=O)N1CC2(CC2)C[C@H]1c1nc(-c2ccc(-c3ccc(-c4c[nH]c([C@@H]5CC6(CC6)CN5C(=O)[C@H](NC(=O)OC)C(C)C)n4)cc3)cc2)c[nH]1)C(C)C [Example M149, methyl ((1R)-1-(((6S)-6-(4-(4'-(2-((6S)-5-((2R)-2-((methoxycarbonyl)amino)-3-methylbutanoyl)-5-azaspiro[2.4]hept-6-yl)-1H-imidazol-4-yl)-4-biphenylyl)-1H-imidazol-2-yl)-5-azaspiro[2.4]hept-5-yl)carbonyl)-2-methylpropyl)carbamate] | 1 to 99
14 | CC[C@H](NC(=O)OC)C(=O)N1CC2(CC2)C[C@H]1c1nc(-c2ccc(-c3ccc(-c4c[nH]c([C@@H]5CC6(CC6)CN5C(=O)[C@H](CC)NC(=O)OC)n4)cc3)cc2)c[nH]1 [Example M148, dimethyl (4,4'-biphenyldiylbis(1H-imidazole-4,2-diyl(6S)-5-azaspiro[2.4]heptane-6,5-diyl((2S)-1-oxo-1,2-butanediyl)))biscarbamate] | 0.001 to 0.999
15 | COC(=O)N[C@H](C(=O)N1CCC[C@H]1c1nc(-c2ccc(-c3ccc(-c4nc([C@@H]5CCCN5C(=O)[C@@H](NC(=O)OC)C(C)C)[nH]c4C)cc3)cc2)c[nH]1)C(C)C [Example E5e, methyl ((1S)-1-(((2S)-2-(4-(4'-(2-((2S)-1-((2S)-2-((methoxycarbonyl)amino)-3-methylbutanoyl)-2-pyrrolidinyl)-1H-imidazol-4-yl)-4-biphenylyl)-5-methyl-1H-imidazol-2-yl)-1-pyrrolidinyl)carbonyl)-2-methylpropyl)carba mate] | 0.001 to 0.999
16 | COC(=O)N[C@@H](C)C(=O)N1CCC[C@H]1c1nc(-c2ccc(-c3ccc(-c4nc([C@@H]5CCCN5C(=O)[C@H](C)NC(=O)OC)[nH]c4C)cc3)cc2)c(C)[nH]1 [Example E5k, methyl ((1S)-2-((2S)-2-(4-(4'-(2-((2S)-1-(N-(methoxycarbonyl)-L-alanyl)-2-pyrrolidinyl)-5-methyl-1H-imidazol-4-yl)-4-biphenylyl)-5-methyl-1H-imidazol-2-yl)-1-pyrrolidinyl)-1-methyl-2-oxoethyl)carbamate] | 0.001 to 0.999
17 | CC(=O)N[C@H](C(=O)N1[C@@H]2C[C@@H]2C[C@H]1c1ncc(-c2ccc(-c3ccc(-c4cnc([C@@H]5C[C@H]6C[C@H]6N5C(=O)[C@@H](NC(C)=O)C(C)C)[nH]4)cc3)cc2)[nH]1)C(C)C [Example M140, N((1S)-1-(((1R,3S,SR)-3-(4-(4'-(2-((1R,3S,SR)-2-((2S)-2-acetamido-3-methylbutanoyl)-2-azabicyclo[3.1.0]hex-3-yl)-1H-imidazol-4-yl)-4-biphenylyl)-1H imidazol-2-yl)-2-azabicyclo[3.1.0]hex-2-yl)carbonyl)-2-methylpropyl)acetamide] | 0.001 to 0.999
18 | COC(=O)N[C@H](C(=O)N1[C@@H]2C[C@@H]2C[C@H]1c1nc(-c2ccc(-c3ccc(-c4c[nH]c([C@@H]5CC6C[C@H]6N5C(C)=O)n4)cc3)cc2)c[nH]1)C(C)C (mixture of isomers) [Example M138, methyl ((1S)-1-(((1R,3S,5R)-3-(4-(4'-(2-((1R,3S,SR)-2-acetyl-2-azabicyclo[3.1.0]hex-3yl)-1Himidazol-4yl)-4-biphenylyl)-1Himidazol-2-yl)-2-azabicyclo[3.1.0]hex-2-yl)carbonyl)-2-methylpropyl)carbamate] | 0.001 to 0.999
